In ChEMBL document CHEMBL1133636, “Discovery of (2S)-1-(4-amino-2,3,5- trimethylphenoxy)-3-[4-[4-(4- fluorobenzyl)phenyl]-1-piperazinyl]-2-propanol dimethanesulfonate (SUN N8075): a dual Na(+) and Ca(2+) channel blocker with antioxidant activity” (J Med Chem, 2000):

Columns and labels:
D(2) dopamine receptor = D(2) dopamine receptor (Rattus norvegicus, UniProt P61169); assay: Concentration required for 50% inhibitory effect on Dopamine receptor D2 determined in competition experiments with [3H]raclopride
[1] = Tested for anticonvulsant effects on audiogenic seizures in DBA/2 mice; administered intra peritonealy; type: functional; details: Mus musculus
[2] = target: Sodium channel alpha subunits; brain (Types I, II, III) (Rattus norvegicus, UniProt P04775+P04774+P08104); assay: Inhibition of veratridine-induced depolarization of rat cerebrocortical synaptosomes using a membrane potential sensitive fluorescent dye, rhodamine 6G; type: functional, subcellular
Rattus norvegicus [3] = organism: Rattus norvegicus; assay: Concentration required for 50% inhibitory effect on automatic oxidation in plasma membrane of rat brain homogenates by measuring malondialdehyde and 4-hydroxyalkenals using peroxidized lipid colorimetric assay kit; type: functional
[4] = Inhibition of low-threshold (T-type) Calcium [Ca2+] currents in primary cultured rat cerebrocortical neurons using whole-cell voltage-clamp recording technique; type: functional
Rattus norvegicus [5] = organism: Rattus norvegicus; assay: Concentration required for 50% inhibitory effect on automatic oxidation in plasma membrane of rat brain homogenates by measuring malondialdehyde and 4-hydroxyalkenals using peroxidized lipid colorimetric assay kit.; type: functional

Sequence of D(2) dopamine receptor (P61169 whole entry): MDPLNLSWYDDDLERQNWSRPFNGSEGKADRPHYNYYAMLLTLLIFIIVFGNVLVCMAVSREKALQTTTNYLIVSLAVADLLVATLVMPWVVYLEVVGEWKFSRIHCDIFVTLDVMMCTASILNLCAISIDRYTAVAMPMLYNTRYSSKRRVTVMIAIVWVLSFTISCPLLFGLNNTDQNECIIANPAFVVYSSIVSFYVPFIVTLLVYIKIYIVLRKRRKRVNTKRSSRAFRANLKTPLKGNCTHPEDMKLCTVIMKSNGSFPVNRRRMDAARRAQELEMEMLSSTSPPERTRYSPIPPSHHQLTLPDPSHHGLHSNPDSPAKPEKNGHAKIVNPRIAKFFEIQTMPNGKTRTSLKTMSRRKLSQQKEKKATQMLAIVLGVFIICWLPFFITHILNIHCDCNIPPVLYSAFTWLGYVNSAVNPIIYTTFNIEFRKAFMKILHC

Row | Structure (SMILES) | IC50 (D(2) dopamine receptor) [nM] | ED50 [1] [mg/kg] | IC50 [2] [nM] | IC50 (Rattus norvegicus [3]) [nM] | IC50 [4] [nM] | IC50 (Rattus norvegicus [5]) [nM]
1 | CC(C)c1ccc(CN2CCN(C(c3ccc(F)cc3)c3ccc(F)cc3)CC2)c(=O)c(NCCO)c1 | 1690 | 14.5 | 360 | 20000 | 300 | –
2 | Fc1ccc(C(c2ccc(F)cc2)N2CCN(C/C=C/c3ccccc3)CC2)cc1 [FLUNARIZINE] | – | 11.4 | – | – | 2200 | –
3 | CS(=O)(=O)O.CS(=O)(=O)O.Cc1cc(OC[C@@H](O)CN2CCN(c3ccc(Cc4ccc(F)cc4)cc3)CC2)c(C)c(C)c1N | > 10000 | 6.5 | 420 | 310 | 2000 | –
4 | Cc1c(C)c2c(c(C)c1O)CC[C@@](C)(CCC[C@H](C)CCC[C@H](C)CCCC(C)C)O2 [ALPHA-TOCOPHEROL] | – | – | – | – | – | > 100000
